# Experimental data reported in US8586611B2 (priority 2005, dated 2013).
# Assays:
# Format in all cases: in vivo
# [1] = tested on: Erysiphe graminis f. sp. tritici; experiment: Test E: wheat powdery mildew, spray the day before inoculation (disease rating, 100 = 100% disease control); details: spray the day before inoculation
# In short: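 Protective test: spores of E. graminis f. sp. tritici dusted on wheat seedlings one day after run-off spraying of test suspension (acetone/water with 250 ppm surfactant; 200 ppm = 500 g/ha). Ratings after 7 days in growth chamber at 20° C, 100 = full control, 0 = none, relative to controls.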
# Plasmopara viticola = experiment: Test B: grape downy mildew, spray 24 h after inoculation (disease rating, 100 = 100% disease control); details: spray 24 h after inoculation
# In short: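 This is a curative spray test, applied 24 h after inoculation. Compounds in 50/50 acetone–water with 250 ppm Trem 014 surfactant were sprayed to run-off on P. viticola-infected seedlings, with 200 ppm equating to 500 g/ha. Plants were kept 5 days in a 20 °C growth chamber, then 24 h humid, and scored 0–100 for disease control relative to controls.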
# Phytophthora infestans [2] = experiment: whole plant or invertebrate; details: tomato late blight, spray the day before inoculation
# Phytophthora infestans [3] = experiment: whole plant or invertebrate; details: tomato late blight, spray 17 h after inoculation
# [4] = compounds without asterisk (not 40 or 10 ppm)
Structure (SMILES),"Test E disease rating (100 = 100% disease control, 0 = no disease control) [1, 4]","Test B disease rating (100 = 100% disease control, 0 = no disease control) (Plasmopara viticola; [4])","Test C disease rating (100 = 100% disease control, 0 = no disease control) (Phytophthora infestans [2]; [4])","Test D disease rating (100 = 100% disease control, 0 = no disease control) (Phytophthora infestans [3]; [4])","Test E disease rating (100 = 100% disease control, 0 = no disease control) ([1]; tested at 10 ppm)","Test B disease rating (100 = 100% disease control, 0 = no disease control) (Plasmopara viticola; tested at 10 ppm)","Test C disease rating (100 = 100% disease control, 0 = no disease control) (Phytophthora infestans [2]; tested at 10 ppm)","Test D disease rating (100 = 100% disease control, 0 = no disease control) (Phytophthora infestans [3]; tested at 10 ppm)","Test E disease rating (100 = 100% disease control, 0 = no disease control) ([1]; tested at 40 ppm)","Test B disease rating (100 = 100% disease control, 0 = no disease control) (Plasmopara viticola; tested at 40 ppm)","Test C disease rating (100 = 100% disease control, 0 = no disease control) (Phytophthora infestans [2]; tested at 40 ppm)","Test D disease rating (100 = 100% disease control, 0 = no disease control) (Phytophthora infestans [3]; tested at 40 ppm)"
CN(Cc1ccncc1)C(=O)c1csc(C2CCN(C(=O)Cc3cccc(C(F)(F)F)c3)CC2)n1 [compound 169],0%,8%,68%,0%,,,,,,,,
Cc1cccc(CC(=O)N2CCC(c3nc(C(=O)N(C)Cc4ccncc4)cs3)CC2)c1 [compound 170],0%,7%,29%,0%,,,,,,,,
Cc1cc(C(F)(F)F)nn1CC(=O)N1CCC(c2nc(C(=O)N(C)C3CCOc4ccccc43)cs2)CC1 (stereo not drawn) [compound 179],,,,,0%,96%,100%,87%,,,,
Cc1cc(C(F)(F)F)nn1CC(=O)N1CCC(c2nc(C(=O)N(C)C3CCSc4ccccc43)cs2)CC1 (stereo not drawn) [compound 180],,,,,0%,47%,100%,92%,,,,
Cc1cc(C(F)(F)F)nn1CC(=O)N1CCC(c2nc(C(=O)N(C)C3CCCCc4ccccc43)cs2)CC1 (stereo not drawn) [compound 181],,,,,0%,73%,100%,98%,,,,
Cc1cc(C(F)(F)F)nn1CC(=O)N1CCC(c2nc(C(=O)N(C)C3CCCc4sccc43)cs2)CC1 (stereo not drawn) [compound 182],,,,,,,,,0%,99%,100%,98%
Cc1cc(C(F)(F)F)nn1CC(=O)N1CCC(c2nc(C(=O)N(C)C3CCCc4occc43)cs2)CC1 (stereo not drawn) [compound 183],,,,,0%,0%,40%,16%,,,,
Cc1cc(C(F)(F)F)nn1CC(=O)N1CCC(c2nc(C(=O)N(C)C3COc4ccccc43)cs2)CC1 (stereo not drawn) [compound 184],,,,,0%,77%,99%,76%,,,,
Cc1cc(C(F)(F)F)nn1CC(=O)N1CCC(c2nc(C(=O)N(C)C3CSCc4ccccc43)cs2)CC1 (stereo not drawn) [compound 185],,,,,0%,99%,100%,98%,,,,
Cc1cc(C(F)(F)F)nn1CC(=O)N1CCC(c2nc(C(=O)N(C)C3CCCCC3c3ccccc3)cs2)CC1 (stereo not drawn) [compound 186],,,,,0%,0%,97%,58%,,,,
Cc1cc(C(F)(F)F)nn1CC(=O)N1CCC(c2nc(C(=O)N(C)C3CCCc4c(O)cccc43)cs2)CC1 (stereo not drawn) [compound 189],0%,93%,100%,99%,,,,,,,,
Cc1cc(C(F)(F)F)nn1CC(=O)N1CCC(c2nc(C(=O)N(C)C3c4ccccc4CCC3O)cs2)CC1 (stereo not drawn) [compound 194],,,,,,,,,0%,0%,98%,74%
CC(=O)OC1CCc2ccccc2C1N(C)C(=O)c1csc(C2CCN(C(=O)Cn3nc(C(F)(F)F)cc3C)CC2)n1 (stereo not drawn) [compound 195],0%,47%,99%,88%,,,,,,,,
COc1cccc2c1CCCC2N(C)C(=O)c1csc(C2CCN(C(=O)Cn3nc(C(F)(F)F)cc3C)CC2)n1 (stereo not drawn) [compound 196],,,,,,,,,0%,97%,100%,99%
COc1ccc2c(c1)CCCC2N(C)C(=O)c1csc(C2CCN(C(=O)Cn3nc(C(F)(F)F)cc3C)CC2)n1 (stereo not drawn) [compound 197],,,,,,,,,0%,98%,100%,99%
COc1ccc2c(c1)C(N(C)C(=O)c1csc(C3CCN(C(=O)Cn4nc(C(F)(F)F)cc4C)CC3)n1)CCC2 (stereo not drawn) [compound 198],,,,,,,,,0%,99%,100%,99%
Cc1cc(C(F)(F)F)nn1CC(=O)N1CCC(c2nc(C(=O)N(C)C3CCC(C)(C)c4ccccc43)cs2)CC1 (stereo not drawn) [compound 199],,,,,,,,,0%,99%,100%,99%
Cc1cc(C(F)(F)F)nn1CC(=O)N1CCC(c2nc(C(=O)N(C)C3CCCc4cc(Cl)ccc43)cs2)CC1 (stereo not drawn) [compound 201],,,,,,,,,0%,98%,100%,99%
Cc1cc(C(F)(F)F)nn1CC(=O)N1CCC(c2cc(C(=O)N(C)[C@@H]3CCCc4ccccc43)no2)CC1 [compound 202],0%,97%,100%,99%,,,,,,,,
Cc1cc(C(F)(F)F)nn1CC(=O)N1CCC(c2cc(C(=O)N(C)[C@@H]3CCCc4ccccc43)on2)CC1 [compound 203],0%,94%,100%,99%,,,,,,,,
Cc1cccnc1CC(=O)N1CCC(c2nc(C(=O)N(C)[C@@H]3CCCc4ccccc43)cs2)CC1 [compound 204],0%,16%,99%,98%,,,,,,,,
